For the assay, the system named is BDF1 mice, B16 melanoma ip, median survival T/C. Description: NCI In Vivo Anticancer Drug Screen. Data for tumor model B16 Melanoma (intraperitoneal) in B6D2F1 (BDF1) mice. The note with it: endpoint: median survival time, higher = longer survival. Here is the method:
The antitumor activity of compounds was measured in mice bearing transplantable tumors. Survival or tumor size were measured and the results are expressed as the measurement made in the treated group (T) divided by the measurement made in the vehicle treated control group (C). The tumor model used in this assay is B16 Melanoma (intraperitoneal) in B6D2F1 (BDF1) mice

[1] abbreviates: dose: 6.25 mg/kg/injection, schedule: Q01DX009 (ip), vehicle: saline with Tween-80.
Setting [2] is: dose: 12.5 mg/kg/injection, schedule: Q01DX009 (ip), vehicle: saline with Tween-80.
[3] abbreviates: dose: 25.0 mg/kg/injection, schedule: Q01DX009 (ip), vehicle: saline with Tween-80.
[4] abbreviates: dose: 50.0 mg/kg/injection, schedule: Q01DX009 (ip), vehicle: Klucel (hydroxypropylcellulose) (HPC).
Where [5] appears, read: dose: 100.0 mg/kg/injection, schedule: Q01DX009 (ip), vehicle: Klucel (hydroxypropylcellulose) (HPC).
Setting [6] is: dose: 200.0 mg/kg/injection, schedule: Q01DX009 (ip), vehicle: Klucel (hydroxypropylcellulose) (HPC).
The mark [7] stands for this setting: dose: 6.25 mg/kg/injection, schedule: Q01DX009 (ip), vehicle: saline.
Setting [8] is: dose: 50.0 mg/kg/injection, schedule: Q01DX009 (ip), vehicle: saline with Tween-80.
[9] abbreviates: dose: 100.0 mg/kg/injection, schedule: Q01DX009 (ip), vehicle: saline with Tween-80.
[10] abbreviates: dose: 25.0 mg/kg/injection, schedule: Q01DX009 (ip), vehicle: Klucel (hydroxypropylcellulose) (HPC).
[11] abbreviates: dose: 25.0 mg/kg/injection, schedule: Q01DX009 (ip), vehicle: saline.
Where [12] appears, read: dose: 100.0 mg/kg/injection, schedule: Q04DX003 (ip), vehicle: Klucel (hydroxypropylcellulose) (HPC).
[13] abbreviates: dose: 25.0 mg/kg/injection, schedule: Q01DX009 (ip), vehicle: water.
Setting [14] is: dose: 50.0 mg/kg/injection, schedule: Q01DX009 (ip), vehicle: water.
Where [15] appears, read: dose: 100.0 mg/kg/injection, schedule: Q01DX009 (ip), vehicle: water.
Where [16] appears, read: dose: 200.0 mg/kg/injection, schedule: Q04DX003 (ip), vehicle: Klucel (hydroxypropylcellulose) (HPC).
Setting [17] is: dose: 400.0 mg/kg/injection, schedule: Q01DX009 (ip), vehicle: Klucel (hydroxypropylcellulose) (HPC).

In PubChem BioAssay AID192 (DTP/NCI, 2004) one finds T/C data, which are given here for 25 compounds.

Molecules are shown by their SMILES. Several values for one entry are separate records, joined by “and”; a condition that tells them apart may be missing. Equal values may be shown once. Toxic doses and inconclusive results are not listed.

On to `COC(=O)C(CCCCN=Cc1ccccc1O)N=Cc1ccccc1O.[Ni]` (configuration not stated), for which the T/C is 100 % of control under setting [1]; 90 % of control under setting [2]; 95 % of control (dose: 12.5 mg/kg/injection, schedule: Q04DX003 (ip), vehicle: saline with Tween-80); 95 % of control under setting [3]; 93 % of control (dose: 25.0 mg/kg/injection, schedule: Q04DX003 (ip), vehicle: saline with Tween-80).

Regarding `c1cc2c(c(NC3=NCCCS3)c1)CCCC2`, the T/C is 106 % of control under setting [4], 96 % of control under setting [5] and 96 % of control under setting [6].

As for `O=C1C(Br)=C(Br)C(=O)C1(Br)Br`, the T/C (dose: 1.56 mg/kg/injection, schedule: Q01DX009 (ip), vehicle: saline) was 100 % of control; the T/C (dose: 3.13 mg/kg/injection, schedule: Q01DX009 (ip), vehicle: saline) is 105 % of control; the T/C (dose: 3.13 mg/kg/injection, schedule: Q04DX003 (ip), vehicle: saline with Tween-80) was 94 % of control; the T/C under setting [7] is 102 % of control; the T/C (dose: 6.25 mg/kg/injection, schedule: Q04DX003 (ip), vehicle: saline with Tween-80) is 89 % of control.

In the case of `CC(NC(=O)CN(C)C(=O)OCc1ccccc1)C(=O)O` (configuration not stated), the T/C is 99 % of control under setting [8]; 98 % of control under setting [9]; 97 % of control (dose: 200.0 mg/kg/injection, schedule: Q01DX009 (ip), vehicle: saline with Tween-80).

For the compound `COC1=CC(=O)C(C2CC(=O)c3c(O)cc(O)cc3O2)=CC1=O` (configuration not stated), the T/C is, setting by setting: (dose: 3.13 mg/kg/injection, schedule: Q01DX009 (ip), vehicle: saline with Tween-80) 102 % of control; under setting [1], 91 % of control; under setting [2], 89 % of control.

On to `COC12C(COC(=O)NCCO)C3=C(C(=O)C(C)=C(N)C3=O)N1CC1NC12` (configuration not stated), for which the T/C by setting is: (dose: 1.56 mg/kg/injection, schedule: Q01DX009 (ip), vehicle: Klucel (hydroxypropylcellulose) (HPC)) 98 % of control; (dose: 3.12 mg/kg/injection, schedule: Q01DX009 (ip), vehicle: Klucel (hydroxypropylcellulose) (HPC)) 116 % of control and 120 % of control and 124 % of control; under setting [7], 119 % of control; under setting [10], 88 % of control and 180 % of control and 209 % of control; under setting [11], 94 % of control.

For `Cc1cccc(C)c1NC(=O)Nc1ccc2c(c1)OCO2`, under setting [12], the T/C was 92 % of control.

`COC(=O)[C@@H]1c2cc3c(c(O)c2[C@@H](OC2OC(C)C(OC)C(C)(OC)C2OC)C[C@]1(C)O)C(=O)c1c(O)cc2c(c1C3=O)O[C@H]1O[C@]2(C)[C@H](O)[C@@H](N(C)C)[C@@H]1O` (some centres not stated): the T/C is, setting by setting: (dose: 250.0 micrograms/kg/injection, schedule: Q01DX009 (ip), vehicle: other) 171 % of control; (dose: 500.0 micrograms/kg/injection, schedule: Q01DX009 (ip), vehicle: other) 171 % of control; (dose: 648.0 micrograms/kg/injection, schedule: Q04DX003 (ip), vehicle: lactic acid) 100 % of control; (dose: 1080.0 micrograms/kg/injection, schedule: Q04DX003 (ip), vehicle: lactic acid) 107 % of control and 121 % of control; (dose: 1800.0 micrograms/kg/injection, schedule: Q04DX003 (ip), vehicle: lactic acid) 110 % of control.

Regarding `CSCCC(NC(=O)CN(C)C(=O)OCc1ccccc1)C(=O)O` (configuration not stated), the T/C runs as follows: under setting [8], 100 % of control; under setting [9], 100 % of control.

Consider `COc1cccc(C(=O)c2ccncc2C)c1OC`, for which the T/C under setting [13] is 98 % of control, the T/C under setting [14] was 96 % of control and the T/C under setting [15] is 96 % of control.

Consider `COc1cc2ccc3cnccc3c2cc1OC`, for which the T/C reads like this: under setting [13], 99 % of control; under setting [14], 91 % of control; under setting [15], 98 % of control; (dose: 200.0 mg/kg/injection, schedule: Q01DX009 (ip), vehicle: water) 88 % of control.

Turning to `Nc1ccc(Cl)cc1N`, the T/C is 104 % of control under setting [2], 105 % of control under setting [3], 102 % of control under setting [8] and 99 % of control under setting [9].

Consider `CC(C)NC(=O)N(c1ccccc1)C(C)C`, for which the T/C reads like this: under setting [4], 105 % of control; under setting [5], 103 % of control.

For the compound `Cc1ccc2nc3c4ccccc4c4ccccc4c3nc2c1`, the T/C is 102 % of control under setting [12]; 97 % of control under setting [16]; 91 % of control (dose: 400.0 mg/kg/injection, schedule: Q04DX003 (ip), vehicle: Klucel (hydroxypropylcellulose) (HPC)).

Consider `CN(C)C(=S)S/C=C\C(=O)O`, for which the T/C runs as follows: (dose: 25.0 mg/kg/injection, schedule: Q04DX003 (ip), vehicle: Klucel (hydroxypropylcellulose) (HPC)) 104 % of control; (dose: 50.0 mg/kg/injection, schedule: Q04DX003 (ip), vehicle: Klucel (hydroxypropylcellulose) (HPC)) 96 % of control; under setting [12], 92 % of control; under setting [16], 113 % of control.

On to `COc1cc([C@@H]2c3cc4c(cc3C[C@H]3COC(=O)[C@@H]32)OCO4)cc(OC)c1OC`, for which the T/C (dose: 5.0 mg/kg/injection, schedule: Q01DX009 (ip), vehicle: saline) is 107 % of control and the T/C (dose: 10.0 mg/kg/injection, schedule: Q01DX009 (ip), vehicle: saline) was 109 % of control.

For the compound `Nc1ncnc2c1ccn2C1OC(CO)C(O)C1O` (configuration not stated), the T/C reads like this: (dose: 0.32 mg/kg/injection, schedule: Q01DX009 (ip), vehicle: saline) 107 % of control; (dose: 0.5 mg/kg/injection, schedule: Q01DX009 (ip), vehicle: Klucel (hydroxypropylcellulose) (HPC)) 91 % of control; (dose: 0.63 mg/kg/injection, schedule: Q01DX009 (ip), vehicle: saline) 120 % of control; (dose: 1.0 mg/kg/injection, schedule: Q01DX009 (ip), vehicle: Klucel (hydroxypropylcellulose) (HPC)) 99 % of control; (dose: 2.0 mg/kg/injection, schedule: Q01DX009 (ip), vehicle: Klucel (hydroxypropylcellulose) (HPC)) 90 % of control.

On to `O=C(Nc1cccc(C(F)(F)F)c1)NC1CCCCC1`, for which the T/C (dose: 100.0 mg/kg/injection, schedule: Q04DX003 (ip), vehicle: gum acacia) was 87 % of control; the T/C (dose: 200.0 mg/kg/injection, schedule: Q04DX003 (ip), vehicle: gum acacia) is 89 % of control; the T/C (dose: 400.0 mg/kg/injection, schedule: Q04DX003 (ip), vehicle: gum acacia) is 87 % of control.

In the case of `COc1cccc(C(Cc2ccccc2)NCc2ccccc2)c1` (configuration not stated), the T/C is, setting by setting: under setting [5], 106 % of control; under setting [6], 100 % of control; under setting [17], 96 % of control.

Take `Cc1cc(=O)n2c3c(c4c(cc13)c(CN(C)C)cc(=O)n4C)OC2`: the T/C by setting is: under setting [1], 103 % of control; under setting [2], 101 % of control; under setting [3], 113 % of control; under setting [8], 117 % of control.

Turning to `CN(C)CC(CN1c2ccccc2Sc2ccccc21)N(C)C` (configuration not stated), the T/C by setting is: (dose: 3.12 mg/kg/injection, schedule: Q01DX009 (ip), vehicle: saline) 102 % of control; under setting [7], 107 % of control; (dose: 12.5 mg/kg/injection, schedule: Q01DX009 (ip), vehicle: saline) 107 % of control; under setting [11], 120 % of control; (dose: 50.0 mg/kg/injection, schedule: Q01DX009 (ip), vehicle: saline) 105 % of control.

As to `CCCC/C=C/CCCCCCCC(=O)OCCCCCCCCCCCCCCCC`, the T/C was 100 % of control under setting [2], 101 % of control under setting [3], 94 % of control under setting [8] and 94 % of control under setting [9].

On to `CC(C)(C)c1cc([N+](=O)[O-])cc(C(C)(C)C)c1O`, for which the T/C under setting [10] was 95 % of control, the T/C under setting [4] is 93 % of control and the T/C under setting [5] is 95 % of control.

Regarding `C[CH2][Ge]1([CH2]C)[CH2]CC2(CCN(CCCN(C)C)C2)C[CH2]1`, the T/C by setting is: (dose: 8.0 mg/kg/injection, schedule: Q02DX009 (ip), vehicle: saline) 102 % of control; (dose: 16.0 mg/kg/injection, schedule: Q02DX009 (ip), vehicle: saline) 106 % of control; (dose: 32.0 mg/kg/injection, schedule: Q02DX009 (ip), vehicle: saline) 102 % of control.

Consider `CCN(C(=O)Nc1cccc2ccccc12)c1ccccc1`, for which the T/C under setting [5] was 102 % of control, the T/C under setting [6] is 88 % of control and the T/C under setting [17] was 91 % of control.
